Experiments:
[1] = target: Programmed cell death protein 1/Programmed cell death 1 ligand 1 (Homo sapiens, UniProt Q9NZQ7); experiment: Inhibition of PD-1/PDL1 protein-protein interaction (unknown origin) by HTRF assay; assay type: protein-complex assay
A549 = experiment: Antiproliferative activity against human A549 cells assessed as reduction in cell viability incubated for 48 hrs by CCK8 assay; assay type: functional, cell-based; details: A549, 48 h
NCI-H1299 = experiment: Antiproliferative activity against human H1299 cells assessed as reduction in cell viability incubated for 48 hrs by CCK8 assay; assay type: functional, cell-based; details: NCI-H1299, 48 h
B16-F10 = experiment: Antiproliferative activity against mouse B16-F10 cells assessed as reduction in cell viability incubated for 48 hrs by CCK8 assay; assay type: functional, cell-based; details: B16-F10, 48 h
MDA-MB-231 = experiment: Antiproliferative activity against human MDA-MB-231 cells assessed as reduction in cell viability incubated for 48 hrs by CCK8 assay; assay type: functional, cell-based; details: MDA-MB-231, 48 h
Jurkat = experiment: Antiproliferative activity against human jurkat cells assessed as reduction in cell viability incubated for 48 hrs by CCK8 assay; assay type: functional, cell-based

Chain of Programmed cell death protein 1/Programmed cell death 1 ligand 1 (Q15116 whole entry): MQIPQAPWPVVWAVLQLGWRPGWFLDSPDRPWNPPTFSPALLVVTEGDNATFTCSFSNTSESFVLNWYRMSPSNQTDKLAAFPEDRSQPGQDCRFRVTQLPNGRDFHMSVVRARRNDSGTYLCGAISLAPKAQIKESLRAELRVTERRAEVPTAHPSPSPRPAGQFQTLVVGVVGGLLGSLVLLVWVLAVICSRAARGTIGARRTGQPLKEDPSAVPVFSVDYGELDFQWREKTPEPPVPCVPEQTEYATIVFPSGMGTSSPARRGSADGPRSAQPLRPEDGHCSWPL
Chain of Programmed cell death protein 1/Programmed cell death 1 ligand 1 (Q9NZQ7 whole entry): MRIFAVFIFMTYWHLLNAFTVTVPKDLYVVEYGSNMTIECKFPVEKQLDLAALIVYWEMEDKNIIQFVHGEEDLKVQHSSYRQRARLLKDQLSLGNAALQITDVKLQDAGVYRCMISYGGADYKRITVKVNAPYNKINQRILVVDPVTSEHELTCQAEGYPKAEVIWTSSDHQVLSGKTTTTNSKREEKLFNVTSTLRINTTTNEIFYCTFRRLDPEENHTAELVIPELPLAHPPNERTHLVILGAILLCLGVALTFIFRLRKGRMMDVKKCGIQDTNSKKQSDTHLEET

With `Cc1c(COc2cc(OCc3cccc(C#N)c3)c(CN3CCCCC3C(=O)NCCNC(=O)COCC(=O)Nc3cccc4c3C(=O)N(C3CCC(=O)NC3=O)C4=O)cc2Cl)cccc1-c1ccccc1` (stereo not given) the IC50 [1] was > 200 nM.

For `Nc1cccc2c1C(=O)N(C1CCC(=O)NC1=O)C2=O` (stereo not given) [POMALIDOMIDE], the IC50 [1] was > 10 nM.

Work on `Cc1c(COc2cc(OCc3cccc(C#N)c3)c(CN3CCCCC3C(=O)NCCCCCNc3cccc4c3C(=O)N(C3CCC(=O)NC3=O)C4=O)cc2Cl)cccc1-c1ccccc1` (stereo not given) yielded an IC50 [1] of 171 nM.

With `Cc1c(COc2ccc(CN3CCCCC3C(=O)NCCNC(=O)CCCC(=O)Nc3cccc4c3C(=O)N(C3CCC(=O)NC3=O)C4=O)cc2Br)cccc1-c1ccccc1` (stereo not given) the IC50 [1] was > 200 nM.

For `Cc1c(COc2cc(OCc3cccc(C#N)c3)c(CN3CCCCC3C(=O)NCCCCCCNc3cccc4c3C(=O)N(C3CCC(=O)NC3=O)C4=O)cc2Cl)cccc1-c1ccc2c(c1)OCCO2` (stereo not given), the IC50 [1] was > 200 nM.

In the case of `Cc1c(COc2cc(OCc3cccc(C#N)c3)c(CN3CCCCC3C(=O)NCCNC(=O)CCCC(=O)Nc3ccc4c(c3)C(=O)N(C3CCC(=O)NC3=O)C4=O)cc2Cl)cccc1-c1ccc2c(c1)OCCO2` (stereo not given), the IC50 [1] is reported as > 200 nM.

With `Cc1c(COc2cc(OCc3cccc(C#N)c3)c(CN3CCCCC3C(=O)NCCCNC(=O)CCC(=O)Nc3cccc4c3C(=O)N(C3CCC(=O)NC3=O)C4=O)cc2Cl)cccc1-c1ccccc1` (stereo not given) the IC50 [1] was > 200 nM.

In the case of `Cc1c(COc2cc(OCc3cccc(C#N)c3)c(CN3CCCCC3C(=O)NCCNC(=O)CCCC(=O)Nc3ccc4c(c3)C(=O)N(C3CCC(=O)NC3=O)C4=O)cc2Cl)cccc1-c1ccccc1` (stereo not given), the IC50 [1] is reported as 102 nM.

In the case of `Cc1c(COc2cc(OCc3cccc(C#N)c3)c(CN3CCCCC3C(=O)N3CCN(C(=O)CCCC(=O)Nc4cccc5c4C(=O)N(C4CCC(=O)NC4=O)C5=O)CC3)cc2Cl)cccc1-c1ccccc1` (stereo not given), the IC50 [1] is reported as 26.1 nM, the IC50 (A549) is reported as > 10000 nM and the IC50 (NCI-H1299) is reported as > 10000 nM. The IC50 (B16-F10) was 10800 nM, the IC50 (MDA-MB-231) was > 10000 nM and the IC50 (Jurkat) was > 11700 nM.

With `Cc1c(COc2cc(OCc3cccc(C#N)c3)c(CN3CCCCC3C(=O)NCCCCCCNc3cccc4c3C(=O)N(C3CCC(=O)NC3=O)C4=O)cc2Cl)cccc1-c1ccccc1` (stereo not given) the IC50 [1] was > 200 nM.

`Cc1c(COc2cc(OCc3cccc(C#N)c3)c(CN3CCCCC3C(=O)NCCNC(=O)CCCC(=O)Nc3cccc4c3C(=O)N(C3CCC(=O)NC3=O)C4=O)cc2Cl)cccc1-c1ccccc1` (stereo not given) showed an IC50 [1] of 123 nM.

`Cc1c(COc2cc(OCc3cccc(C#N)c3)c(CN3CCCCC3C(=O)N3CCN(C(=O)CCC(=O)Nc4cccc5c4C(=O)N(C4CCC(=O)NC4=O)C5=O)CC3)cc2Cl)cccc1-c1ccc2c(c1)OCCO2` (stereo not given) was tested, and the IC50 [1] was 25.2 nM, the IC50 (A549) was 9200 nM and the IC50 (NCI-H1299) was > 10000 nM. The IC50 (B16-F10) was 7300 nM, the IC50 (MDA-MB-231) was > 10000 nM and the IC50 (Jurkat) was > 10000 nM.

Compound `Cc1c(COc2ccc(CN3CCCCC3C(=O)NCCCCNc3cccc4c3C(=O)N(C3CCC(=O)NC3=O)C4=O)cc2Br)cccc1-c1ccccc1` (stereo not given) has an IC50 [1] of 197 nM.

`Cc1c(COc2cc(OCc3cccc(C#N)c3)c(CN3CCCCC3C(=O)NCCNc3cccc4c3C(=O)N(C3CCC(=O)NC3=O)C4=O)cc2Cl)cccc1-c1ccccc1` (stereo not given) gave an IC50 [1] of 118 nM.

Compound `Cc1c(COc2cc(OCc3cccc(C#N)c3)c(CN3CCCCC3C(=O)NCCCCNc3cccc4c3C(=O)N(C3CCC(=O)NC3=O)C4=O)cc2Cl)cccc1-c1ccccc1` (stereo not given) has an IC50 [1] of 52.8 nM, an IC50 (A549) of 8200 nM and an IC50 (NCI-H1299) of 10500 nM. The IC50 (B16-F10) was > 10000 nM, the IC50 (MDA-MB-231) was > 10000 nM and the IC50 (Jurkat) was > 10000 nM.
